# Measurements reported in patent publication US20230312577A1, “DUAL KINASE-BROMODOMAIN INHIBITORS” (MONASH UNIVERSITY, priority 2020, published 2023).
# Key:
# MYC target genes = assay: RNA-Seq and Gene Set Enrichment Analysis (GSEA) in OPM2 cells; type: cell-based, human; details: 250 nM, 2 h
# Method: OPM2 cells (4×10^6) were treated with 250 nM of Cpd 010 or DMSO vehicle for 2 h. Cells pellets were collected, and RNA was extracted using the Nucleospin RNA extraction kit (Macherey-Nagel) as per the manufacturer's instructions. The QuantSeq 30 mRNA-seq Library Prep Kit for Illumina (Lexogen) was used to generate libraries as per the manufacturer's instructions, which were sequenced on the NextSeq (Illumina; 75 bp SE). GSEA2-2.2.2 was used for identification of enriched signatures obtained from the MSigDB Hallmarks datasets (Liber-zon et al., 2015). Samples were prepared in technical triplicates.
# Eμ-Myc lymphoma cells = assay: In vivo tumour burden from a single dose, Eμ-Myc lymphoma; set-up: species or system mouse
# Method: (§1) B6.SJL-PtprcPepc/BoyJ (B6.CD45.1) mice were inoculated via tail vein injection with 5×10^5 Eμ-Myc lymphoma cells and left untreated for 12-14 days. A single injection of Cpd 010 at 35-45 mg/kg, or vehicle control (30% HPBCD) was administered. Half of the mice (n=6) were harvested 6 h post injection while the other half (n=6) were harvested 16 h later. Assessment of tumour burden was carried out on single cell suspension of harvested lymph nodes, spleen and blood by flow cytometry using antibodies as above. PD-L1 MFI was assessed by flow cytometry in harvested LNs using anti-mouse PD-L1-PE (ThermoFisher Scientific, clone MIH5) or isotype control antibodies (Mouse IgG2b PE, #559529). Harvested LNs were also washed in PBS and lysates were collected using Laemmli Buffer (AlfaAeser #J61337). They were processed as per our Western Blot protocol (see above) before they were probed for primary pAKT antibodies. Spleen size and weights were also measured between the treatment groups.
# Vk*MYC myeloma cells = assay: In vivo therapeutic assessment, Vk*MYC multiple myeloma mouse model; details: once daily, 5 days a week, 3 weeks
# Method: For Vk*MYC multiple myeloma mouse models, wild type C57/B16 mice were irradi-ated with 2 fractions of 3.3Gy (Gammacell® 40 caesium source, Atomic Energy of Canada Ltd., Ontario, Canada) prior to transplantation of Vk*MYC myeloma cells (2.4×10^5). Mice were monitored for tumour progression by measuring M-proteins via serum protein electropho-resis (SPEP). Mice were treated with 3 weeks of Cpd 010 or vehicle once daily (5 days a week) for 3 weeks when their average SPEP has reached 7-10%. Serial measurement of SPEP was carried out during and post therapy. Overall survival was recorded.
# [1] = test system: pAKT (PI3K substrate) and MYC (BET target protein); assay: Western Blot analysis in OPM2 cells; type: cell-based, human; details: 4 hours
# Method: OPM2 cells (1.2×10^6) were treated with Cpd 010 or DMSO control at indicated concentrations for 4 hours. Lysates were prepared in ice-cold RIPA lysis buffer (Thermofisher, Life Technologies) and supplemented with Halt protease phosphatase inhibitor cocktail (Thermofisher, Pierce Biotechnology). Protein concentrations of lysate samples were determined by bicinchoninic acid assay (BCA assay) using the Thermo Scientific Pierce BCA Protein Assay Kit (ThermoFisher, Life Technologies) as per manufacturer's instructions. Absorbance for protein concentration estimation was measured using a BMG OPTIMA (Fluostar optima, BMG Labtech). Lysates (25-50 μg) were separated on pre-cast gels (Bis-Tris 4-12% gradient gels) (Bolt, Life Technologies) and transferred onto polyvinylidene difluoride (PVDF) membranes (Immobilon-FL, Merck). The membranes were sequentially incubated with primary antibodies o.n. at 4° C.; mouse anti-β-actin (Sigma-Aldrich, clone AC-74), rabbit anti-cMyc (Cell Signaling, #9402S), rabbit anti-pAKT Ser473 (Cell Signaling, #9271), rabbit anti-pS6 Ser240/244 (Cell Signaling, #2215). Subsequently they were incubated with horse radish pe-roxidase (HRP)-conjugated secondary antibodies for 1-2 h at r.t before the detection of proteins by enzymatic (chemiluminescent) reaction using a ChemiDoc^Tm XRS+ System (Bio-Rad La-boratories Inc.). […]
# [2] = test system: panel of human multiple myeloma cell lines; assay: Apoptosis assay (TMRE, flow cytometry); type: cell-based; details: 48 h
# Method: A panel of human multiple myeloma cell lines (3×10^5) was incubated in the presence of Cpd 010 or DMSO vehicle control with indicated concentrations for 48 h before flow cytometric analysis of viability using Tetramethylrhodamine ethylester (TMRE) stains. Further apoptotic assay using only OPM2 cells was carried out using Cpd 010 or DMSO with TMRE stains.
# [3] = test system: MLL-AF9 cells (IBET-151-sensitive and IBET-151-resistant); assay: Apoptosis assay in BET-inhibitor-resistant cells (Annexin V/PI); type: cell-based, mouse; details: 72 h, Annexin V/PI
# Method: Mouse AML cells; MLL-AF9 (IBET-151-sensitive and IBET-151-resistant) (5×10^4) were treated with indicated compounds for 72 h. Apoptotic analysis was performed by flow cytometry using Annexin V/propidium iodide (PI) stains. Data were collected on a BD LSR-Fortessa X20 (BD Biosciences) and analysed using FlowJo Software, version 10.0.7 (Tree Star). IC50 were calculated using the GraphPad Prism Software Version 7.0c. Data are representative of biological triplicates.
# [4] = test system: PD-L1 and pAKT (PI3K substrate); assay: In vivo target engagement from a single dose (PD-L1, pAKT), Eμ-Myc lymphoma; set-up: species or system mouse; details: single dose 35-45 mg/kg
# Method: as §1
# In terms of target engagement, PD-L1 expression in the tumour cells were measured in the harvested LN and spleen. As expression of the Myc transgene in Eμ-Myc is not BET-de pendent, MYC cannot be measured as a read-out of BET inhibition, therefore PD-L1 was used as an indicator for BET inhibition. […] Similarly, pAKT (PI3K substrate) was suppressed by Cpd 010 in the lysates made from harvested LN.
compound,measurement,setting,value
"CC(=O)N1c2ccc(-c3ccc(CNC(=O)c4cn5cc(-c6cnc(N)nc6)nc(N6CCOCC6)c5n4)cc3)cc2CC[C@@H]1C [Cpd 010, (S)-N-(4-(1-acetyl-2-methyl-1,2,3,4-tetrahydroquinolin-6-yl)benzyl)-6-(2-aminopyrimidin-5-yl)-8-morpholinoimidazo[1,2-a]pyrazine-2-carboxamide]",gene set enrichment,MYC target genes,enrichment against MYC target genes with a trend toward MTORC1 signaling genes
same,size of the spleen,Eμ-Myc lymphoma cells; single dose 35-45 mg/kg,significantly reduced
same,number of tumour cells in peripheral blood and harvested spleen,"Eμ-Myc lymphoma cells; single injection 35-45 mg/kg, 16 h",marked reduction in number of tumour cells in peripheral blood and harvested spleen
same,tumour burden (M-proteins) on treatment,Vk*MYC myeloma cells; SPEP,reduce tumour burden (M-proteins)
same,median survival,Vk*MYC myeloma cells; vehicle 196.5 days,243 days
same,levels of pAKT and MYC,[1],suppressed levels of both pAKT (PI3K substrate) and MYC (BET target protein) at all test concentrations
same,relative sensitivity of the cell lines,[2]; U266 express MYCN instead of c-MYC,OPM2 cells were the most sensitive and U266 was the least sensitive
same,induction of apoptosis in multiple myeloma cell lines,[2]; six cell lines,induced dose-dependent apoptosis in five of the six treated cells
same,apoptosis in I-BET151-resistant MLL-AF9 cells,[3],"capable of inducing apoptosis in I-BET151-resistant MLL-AF9 cells, comparable to the I-BETE151-sensitive cells"
same,PD-L1 expression in tumour cells (indicator for BET inhibition),[4]; harvested LN,significantly reduced
same,pAKT (PI3K substrate),[4]; lysates from harvested LN,suppressed
